# Test results published in patent US20230398130A1, “METHODS AND COMPOSITIONS FOR DIFFERENTIATING STEM CELLS” (Massachusetts Institute of Technology, priority 2020, published 2023).
# What was measured:
# [1] = test system: ISC-enriched organoids; experiment: Primary screen, 384-well 2.5-D organoid differentiation (ENR+CD, 6 days): carbachol-induced lysozyme secretion (LYZ.S); type: cell-based, murine; conditions: for Dose.FC.LYZ.S (log 2 fold change, carbachol-induced lysozyme secretion): vs plate median; for Dose.FC.LYZ.S: FC vs plate median
# Excerpt: (§1) High-throughput screening.
# [2] = test system: ISC-enriched organoids; experiment: Primary screen, 384-well 2.5-D organoid differentiation (ENR+CD, 6 days, Target Selective Inhibitor Library, vs whole-plate median): ATP (CellTiter-Glo 3D, CTG); conditions: for Dose.FC.CTG (log 2 fold change, ATP): vs plate median; for Dose.FC.CTG: FC vs plate median; for Z.CTG: standard z score of FC
# [3] = test system: ISC-enriched organoids; experiment: Primary screen, 384-well 2.5-D organoid differentiation (ENR+CD, 6 days): basal lysozyme secretion (LYZ.NS); type: cell-based, murine; conditions: for Dose.FC.LYZ.NS (log 2 fold change, basal lysozyme secretion): vs plate median; for Dose.FC.LYZ.NS: FC vs plate median; for Z.LYZ.NS: standard z score of FC
# Excerpt: as §1
Compound,Z.CTG ([2]; Dose 0.08 uM),Z.CTG ([2]; Dose 0.40 uM),Z.CTG ([2]; Dose 2.00 uM),Z.CTG ([2]; Dose 10.00 uM),Z.LYZ.NS ([3]; Dose 0.08 uM),Z.LYZ.NS ([3]; Dose 0.40 uM),Z.LYZ.NS ([3]; Dose 2.00 uM),Z.LYZ.NS ([3]; Dose 10.00 uM),"Dose.FC.LYZ.S ([1]; Dose 0.08 uM, ENR+CD, 6 days)","Dose.FC.LYZ.S ([1]; Dose 0.40 uM, ENR+CD, 6 days)","Dose.FC.LYZ.S ([1]; Dose 2.00 uM, ENR+CD, 6 days)","Dose.FC.LYZ.S ([1]; Dose 10.00 uM, ENR+CD, 6 days)","Dose.FC.CTG ([2]; Dose 0.08 uM, ENR+CD, 6 days)","Dose.FC.CTG ([2]; Dose 0.40 uM, ENR+CD, 6 days)","Dose.FC.CTG ([2]; Dose 2.00 uM, ENR+CD, 6 days)","Dose.FC.CTG ([2]; Dose 10.00 uM, ENR+CD, 6 days)","Dose.FC.LYZ.NS ([3]; Dose 0.08 uM, ENR+CD, 6 days)","Dose.FC.LYZ.NS ([3]; Dose 0.40 uM, ENR+CD, 6 days)","Dose.FC.LYZ.NS ([3]; Dose 2.00 uM, ENR+CD, 6 days)","Dose.FC.LYZ.NS ([3]; Dose 10.00 uM, ENR+CD, 6 days)",other results
Nc1nc(N)c2nc(-c3cccc(O)c3)c(-c3cccc(O)c3)nc2n1 [TG100-115],–,–,–,–,–,–,–,–,–,–,–,–,–,–,–,–,–,–,–,–,"Dose.FC.LYZ.S (log 2 fold change, carbachol-induced lysozyme secretion) ([1]; dose 0.08 uM): 0.073; Dose.FC.LYZ.S (log 2 fold change, carbachol-induced lysozyme secretion) ([1]; dose 0.40 uM): 0.032; Dose.FC.LYZ.S (log 2 fold change, carbachol-induced lysozyme secretion) ([1]; dose 2.00 uM): −0.019; Dose.FC.LYZ.S (log 2 fold change, carbachol-induced lysozyme secretion) ([1]; dose 10.00 uM): −0.100; Z.CTG (standard z score) ([2]; dose 0.08 uM): −0.611; Dose.FC.CTG (log 2 fold change, ATP) ([2]; dose 0.08 uM): −0.256; Z.CTG (standard z score) ([2]; dose 0.40 uM): 0.158; Dose.FC.CTG (log 2 fold change, ATP) ([2]; dose 0.40 uM): 0.066; Z.CTG (standard z score) ([2]; dose 2.00 uM): −0.031; Dose.FC.CTG (log 2 fold change, ATP) ([2]; dose 2.00 uM): −0.013; Z.CTG (standard z score) ([2]; dose 10.00 uM): −0.277; Dose.FC.CTG (log 2 fold change, ATP) ([2]; dose 10.00 uM): −0.116; Z.LYZ.NS (standard z score) ([3]; dose 0.08 uM): 1.812; Dose.FC.LYZ.NS (log 2 fold change, basal lysozyme secretion) ([3]; dose 0.08 uM): 0.208; Z.LYZ.NS (standard z score) ([3]; dose 0.40 uM): −0.223; Dose.FC.LYZ.NS (log 2 fold change, basal lysozyme secretion) ([3]; dose 0.40 uM): −0.026; Z.LYZ.NS (standard z score) ([3]; dose 2.00 uM): 0.025; Dose.FC.LYZ.NS (log 2 fold change, basal lysozyme secretion) ([3]; dose 2.00 uM): 0.003; Z.LYZ.NS (standard z score) ([3]; dose 10.00 uM): −0.223; Dose.FC.LYZ.NS (log 2 fold change, basal lysozyme secretion) ([3]; dose 10.00 uM): −0.026"
CC(=O)c1c(C)c2cnc(Nc3ccc(N4CCNCC4)cn3)nc2n(C2CCCC2)c1=O.Cl [Palbociclib (PD-0332991) HCl],0.404,−0.836,−0.199,−1.617,−0.055,−0.248,−0.440,−1.150,–,–,–,–,–,–,–,–,–,–,–,–,"Dose.FC.LYZ.S ([1]; Dose 0.08 uM, primary screen): 0.004 log 2 fold change; Dose.FC.LYZ.S ([1]; Dose 0.40 uM, primary screen): −0.042 log 2 fold change; Dose.FC.LYZ.S ([1]; Dose 2.00 uM, primary screen): −0.122 log 2 fold change; Dose.FC.LYZ.S ([1]; Dose 10.00 uM, primary screen): −0.203 log 2 fold change; Dose.FC.CTG ([2]; Dose 0.08 uM, primary screen): 0.169 log 2 fold change; Dose.FC.CTG ([2]; Dose 0.40 uM, primary screen): −0.350 log 2 fold change; Dose.FC.CTG ([2]; Dose 2.00 uM, primary screen): −0.083 log 2 fold change; Dose.FC.CTG ([2]; Dose 10.00 uM, primary screen): −0.677 log 2 fold change; Dose.FC.LYZ.NS ([3]; Dose 0.08 uM, primary screen): −0.006 log 2 fold change; Dose.FC.LYZ.NS ([3]; Dose 0.40 uM, primary screen): −0.029 log 2 fold change; Dose.FC.LYZ.NS ([3]; Dose 2.00 uM, primary screen): −0.051 log 2 fold change; Dose.FC.LYZ.NS ([3]; Dose 10.00 uM, primary screen): −0.132 log 2 fold change"
C[C@H](N[C@@H](CCc1ccccc1)C(=O)O)C(=O)N1CCC[C@H]1C(=O)O.O.O [Enalaprilat Dihydrate],−0.454,−0.296,−0.791,−2.338,0.027,−0.030,−0.195,−1.364,−0.001 log 2 fold change,0.111 log 2 fold change,−0.095 log 2 fold change,−0.281 log 2 fold change,−0.190 log 2 fold change,−0.124 log 2 fold change,−0.331 log 2 fold change,−0.979 log 2 fold change,0.003 log 2 fold change,−0.003 log 2 fold change,−0.022 log 2 fold change,−0.157 log 2 fold change,–
C=CC(=O)Nc1cccc(Nc2nc(Nc3ccc(Oc4ccnc(C(=O)NC)c4)cc3)ncc2F)c1 [CNX-774],0.619,0.422,−0.260,−0.194,0.655,−0.067,1.378,−0.376,0.014 log 2 fold change,−0.027 log 2 fold change,0.082 log 2 fold change,−0.089 log 2 fold change,0.259 log 2 fold change,0.177 log 2 fold change,−0.109 log 2 fold change,−0.081 log 2 fold change,0.075 log 2 fold change,−0.008 log 2 fold change,0.158 log 2 fold change,−0.043 log 2 fold change,–
